The record followed here is article PMC6450673, “Targeted degradation of aberrant tau in frontotemporal dementia patient-derived neuronal cell models” (eLife, 2019).

“And” between values parts separate entries of the source, which are not always exact repeats. Equal values may be shown once.

For series [1], the system named is P-tau S396 in tau-P301L patient iPSC-derived neurons. Put plainly: P-Tau[pS396] ELISA in P301L neurons. The class given is cell-based, human. The following applies: 24 h, replicate values. From the text: (§1) Cells from individuals carrying the tau risk variant A152T (c.1407G > A; NCBI RefSeq NM_001123066, rs143624519), the autosomal dominant mutation P301L (c.C1907T; NCBI NM_001123066, rs63751273), or age-matched non-mutant WT tau were employed in this study (Figure 2—source data 1). Dermal fibroblasts from the tau-P301L carrier and the healthy individual were generated from a skin biopsy from subjects within the MGH Frontotemporal Disorders Unit as part of the MGH Neurodegeneration Repository. Approval for human subjects’ work was obtained under a Partners/MGH-approved IRB Protocol (#2010P001611/MGH). Fibroblasts were reprogrammed into iPSCs, which were subsequently converted into cortical-enriched neural progenitor cells (NPCs) and differentiated into neuronal cells as previously described ([Almeida et al., 2012]; [Seo et al., 2017]; [Silva et al., 2016]; [Sheridan et al., 2011]) (Silva MC, Manuscript in preparation, 2019). Briefly, cells were cultured in 6-well (Fisher Scientific Corning, Pittsburgh, PA) or 96-well (Fisher Scientific Corning) plates coated with poly-ornithine (20 μg/mL in water, Sigma, St. Louis, MO) and laminin (5 μg/mL in PBS, Sigma) (POL-coated), in DMEM/F12-B27 media [70% DMEM (Gibco, Carlsbad, CA), 30% Ham’s-F12 (Fisher Scientific Corning), 2% B27 (Gibco), 1% penicillin-streptomycin (Gibco)]. Media was supplemented with EGF (20 ng/mL, Sigma), FGF (20 ng/mL, Stemgent, Cambridge, MA) and heparin (5 μg/mL, Sigma), to promote NPC proliferation and expansion. The growth factors were withdrawn to promote neural differentiation for 6 to 8 weeks, with half media change two times per week. Cell lines’ identity was authenticated by SANGER sequencing, karyotyping and ACGH analysis at different stages of culture maintenance from iPSC to NPC. All working cell lines tested negative for mycoplasma contamination.
(§2) Compound treatment in six-well plates was performed in 2 mL media volume by removing 1 mL of conditioned media from the culture and adding 1 mL of new media pre-mixed with the compound at the appropriate 2X concentration, followed by incubation at 37°C for the designated period of time. Compound treatment in 96-well plates was performed in 100 μL media volume by adding compound directly to each well, followed by incubation at 37°C. When testing the effect of drug pre-treatment, the first compound was added as described above for the period of time needed, and then QC-01–175 was added directly onto the media without media exchange.
(§3) Neuronal cells differentiated in six-well plate format for 6 weeks, were collected as described for western blotting, and lysed in ELISA-compatible buffer (Invitrogen FNN0011), supplemented with 1 mM PMSF, protease (Roche) and phosphatase (Sigma) inhibitors cocktails, for 30 min on ice with quick vortexing. Lysates were clarified by centrifugation at 13,000 rpm at 4°C for 10 min. The clear lysates were then transferred to new microfuge tubes and total protein concentration was quantified with the Pierce BCA Protein Assay Kit (ThermoFisher Scientific). ELISA assays were performed according to manufacturer instructions: Human Total Tau ELISA (Invitrogen Kit KHB0041/KHB0042) and P-Tau[pS396] Human ELISA Kit (Invitrogen Kit KHB7031). Data was plotted using GraphPad Prism version 8.0.

Series [2] relates to P-tau S396 in P301L neurons. As to the kind of experiment: Western blot of P-tau S396 in P301L neurons. The series is classed as cell-based, human. As to conditions: western blot, 1 μM, 24 hr.
Description: as §1, §2
Neurons differentiated in six-well plates for 6 weeks were washed and collected in PBS, lysed in RIPA buffer (Boston Bio-Products, Boston, MA) supplemented with 2% SDS (Sigma), protease inhibitors cocktail (Roche Complete Mini tablets, Mannheim, Germany), and phosphatase inhibitors cocktail (Sigma), followed by water sonication (Bransonic Ultrasonic Baths, Thomas Scientific, Danbury, CT) and 20,000 g centrifugation for 20 min. Supernatants were transferred to new tubes and total protein concentration was quantified with the Pierce BCA Protein Assay Kit (ThermoFisher Scientific, Carlsbad, CA). Human recombinant tau protein ladder was purchased from Sigma. Electrophoresis were performed with the Novex NuPAGE SDS-PAGE Gel System (Invitrogen, Carlsbad, CA), by running 10 μg of total protein (pre-boiled in SDS-DTT loading buffer, NEB, Ipswich, MA) on pre-cast SDS-PAGE. Gels were transferred onto PVDF membranes (EMD Millipore) using standard procedures. Membranes were blocked in 5% BSA (Sigma) in Tris-buffered saline with Tween-20 (TBST/Biorad, Hercules, CA) for 2 hr, incubated overnight with primary antibody (see antibody section) at 4°C, followed by corresponding HRP-linked secondary antibody incubation (Cell Signaling Technology, Danvers, MA). […]
(In general: A western blot detects proteins with antibodies after separation by electrophoresis.)

Series [3] addresses T1, P-tau S396 in non-mutant control iPSC-derived neurons (Homo sapiens, UniProt P10636).
T1 construct: modeling pathogenic tau species without the need for overexpression of heterologous genes; endogenous in cells; host or cells: 8330-8-RC1, MGH2069-RC1, CTR2-L17-RC2 human iPSC-derived neurons
As to the kind of experiment: P-Tau[pS396] ELISA in control neurons 1-3. The series is classed as cell-based. The following applies: all three control neurons, ELISA, 24 hr, concentrations up to 1 μM.
Description: as §1, §2, §3
In general terms: In an ELISA, binding on a coated surface is turned into a signal by an enzyme label.

For series [4], the target named is T2, total tau (TAU5) in non-mutant control iPSC-derived neurons (Homo sapiens, UniProt P10636).
T2 construct: modeling pathogenic tau species without the need for overexpression of heterologous genes; endogenous in cells; host or cells: 8330-8-RC1, MGH2069-RC1, CTR2-L17-RC2 human iPSC-derived neurons
T2 sequence (P10636 1-441 isoform P10636-8, stated change not applied): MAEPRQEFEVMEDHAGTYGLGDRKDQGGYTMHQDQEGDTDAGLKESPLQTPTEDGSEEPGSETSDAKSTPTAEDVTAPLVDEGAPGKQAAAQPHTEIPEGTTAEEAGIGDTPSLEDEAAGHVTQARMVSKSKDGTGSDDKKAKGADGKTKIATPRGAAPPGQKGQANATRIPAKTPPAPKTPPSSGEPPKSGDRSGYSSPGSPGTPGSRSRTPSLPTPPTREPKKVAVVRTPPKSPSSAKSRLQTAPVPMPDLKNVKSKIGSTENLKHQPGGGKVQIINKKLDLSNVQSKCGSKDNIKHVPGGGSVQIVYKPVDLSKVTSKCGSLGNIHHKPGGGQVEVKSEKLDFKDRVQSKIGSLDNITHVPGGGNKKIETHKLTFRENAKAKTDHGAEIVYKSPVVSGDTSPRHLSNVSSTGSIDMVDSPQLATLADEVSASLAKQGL
As to the kind of experiment: Human total tau ELISA in control neurons 1-3. The series is classed as cell-based. As to conditions: all three control neurons, ELISA, 24 hr, concentrations up to 1 μM.
Description: as §1, §2, §3

For series [5], the system named is total tau (TAU5) in P301L neurons. Put plainly: Western blot of total tau in P301L neurons. The class given is cell-based, human. As to conditions: western blot, 1 μM, 24 hr.
Description: as §1
Compound treatment in six-well plates was performed in 2 mL media volume by removing 1 mL of conditioned media from the culture and adding 1 mL of new media pre-mixed with the compound at the appropriate 2X concentration, followed by incubation at 37°C for the designated period of time. […]
Neurons differentiated in six-well plates for 6 weeks were washed and collected in PBS, lysed in RIPA buffer (Boston Bio-Products, Boston, MA) supplemented with 2% SDS (Sigma), protease inhibitors cocktail (Roche Complete Mini tablets, Mannheim, Germany), and phosphatase inhibitors cocktail (Sigma), followed by water sonication (Bransonic Ultrasonic Baths, Thomas Scientific, Danbury, CT) and 20,000 g centrifugation for 20 min. Supernatants were transferred to new tubes and total protein concentration was quantified with the Pierce BCA Protein Assay Kit (ThermoFisher Scientific, Carlsbad, CA). […]

The next series deals with A152T neurons. As to the kind of experiment: Neuronal stress and viability assay, rescue of Aβ(1-42) toxicity (Alamar Blue). The series is classed as cell-based, human. In general terms: Resazurin is reduced to fluorescent resorufin, in cell work by metabolically active cells.

T1 sequence (P10636 1-441 isoform P10636-8, stated change not applied): as above

`O=C(CCc1ccc2c(c1)[nH]c1ccncc12)NCCOCCOCCNc1cccc2c1C(=O)N(C1CCCNC1=O)C2=O` (stereo not shown) [QC-03–075]: the “S396 P-Tau (ELISA, relative to vehicle-treated)” value in series [1] (0.001 μM compound) was 0.78 and 0.92 and 0.82 and 0.98 and 0.91 and 0.80; in series [1] (0.01 μM compound), 0.75 and 0.69 and 0.79 and 0.95 and 0.71 and 0.78; in series [1] (0.05 μM compound), 0.82 and 0.66 and 0.76 and 0.92 and 0.72 and 0.74; in series [1] (0.1 μM compound), 0.74 and 0.68 and 0.98 and 0.64 and 0.75 and 0.87; in series [1] (0.5 μM compound), 1.00 (2×) and 0.92 and 1.05 and 0.87 and 1.03; in series [1] (1 μM compound) it was 1.05 and 0.97 and 1.10 and 0.91 and 1.00 and 1.08. For the same compound, in series [1] (10 μM compound), the “S396 P-Tau (ELISA, relative to vehicle-treated)” value is 0.62 and 0.57 and 0.65 and 0.54 and 0.69 and 0.64. The “reduction of P-tau S396” value in series [2] is “no effect”. In series [3], the “degradation of P-tau S396” value is given as “No significant degradation”. For the same compound, in series [4], the degradation of tau entry is reported as “No significant degradation”. Besides, the “reduction in total tau” value in series [5] was “no effect”. Besides, the “viability after Aβ(1-42) stressor, relative to vehicle-alone control” value in the series with A152T neurons (A152T neurons 8 weeks, 5 μM pre-treatment 8 hr, then 10 μM Aβ(1-42) for 16 hr) is “little effect on the toxicity of Aβ(1-42)”. The “neuronal viability, compound alone” value in the series on A152T neurons (A152T neurons, 24 hr treatment, 5 μM) is “no change in neuronal viability”.
